Measurements reported in patent publication US12384753B2, “17-beta-hydroxysteroid dehydrogenase type 13 inhibitors and methods of use thereof” (Enanta Pharmaceuticals, Inc., priority 2021, dated 2025).

Each compound was assayed against Recombinant human HSD17B13 (Homo sapiens (Human), UniProt Q7Z5P4) (assay: HSD17B13 rapid-fire mass spectrometry assay (RF/MS assay)). Conditions: inhibition of HSD17B13; LTB4 10 μM, NAD+ 0.5 mM, RT 3 h; IC50 ranges A-E.
Recombinant human HSD17B13, sequence (Q7Z5P4 20-300): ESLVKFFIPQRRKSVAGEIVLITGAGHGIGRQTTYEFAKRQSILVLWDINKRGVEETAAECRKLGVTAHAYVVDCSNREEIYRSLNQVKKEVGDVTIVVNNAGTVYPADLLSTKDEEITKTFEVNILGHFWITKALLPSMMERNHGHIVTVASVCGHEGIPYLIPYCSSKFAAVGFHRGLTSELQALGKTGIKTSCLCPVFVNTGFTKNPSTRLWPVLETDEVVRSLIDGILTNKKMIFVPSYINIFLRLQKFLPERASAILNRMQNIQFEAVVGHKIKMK
Format: biochemical
In short: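 Product 12-oxo-LTB4 and substrate LTB4 quantified by RapidFire triple-quad MS in negative mode, giving percent conversion. Reaction: 80 nM recombinant hHSD17B13, 10 μM LTB4, 0.5 mM NAD+, compound up to 100 μM, pH 7.5, RT, 3 h. Variable-slope fit gave IC50; run in duplicate.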
Compound `COc1cc(C(=O)O)ccc1NS(=O)(=O)c1ccc(-c2ccccc2)s1` [Example 149] has an IC50 of 500 to 1000 nM.
`COc1cc(C(=O)O)c(F)cc1NS(=O)(=O)c1csc(-c2ccc([C@H]3CC[C@H](C(C)C)CC3)cc2C(F)(F)F)n1` [Example 620] gave an IC50 of under 100 nM.
Work on `COc1cc(C(=O)O)c(F)cc1NS(=O)(=O)c1cnc(-c2ccc(C3=CC=C(F)CC3)cc2)s1` [Example 726] yielded an IC50 of 100 to 500 nM.
`COc1cc(C(=O)O)ccc1NS(=O)(=O)c1csc(-c2ccc(F)c3ccoc23)n1` [Example 89] gave an IC50 of 1000 to 100000 nM.
With `COc1cc(C(=O)O)ccc1NS(=O)(=O)c1csc(-c2ccc([C@H]3CC[C@H](C(F)(F)F)CC3)cc2)n1` [Example 506] the IC50 was under 100 nM.
Work on `COc1cc(C(=O)O)c(F)cc1NS(=O)(=O)c1csc(-c2ccc([C@H]3CC[C@H](C(F)(F)F)CC3)c(F)c2C)n1` [Example 603] yielded an IC50 of under 100 nM.
Compound `COc1cc(C(=O)O)ccc1NS(=O)(=O)c1csc(C#Cc2ccc([N+](=O)[O-])cc2)n1` [Example 209] has an IC50 of 100 to 500 nM.
With `CCCCC[C@H]1CC[C@H](c2ccc(-c3nc(S(=O)(=O)Nc4cc(F)c(C(=O)O)cc4OC)cs3)c(F)c2)CC1` [Example 759] the IC50 was 100 to 500 nM.
`COc1cc(C(=O)O)ccc1NS(=O)(=O)c1csc(-c2ccc3cc(C4=CCC(C)(C)CC4)ccc3c2)n1` [Example 459, 4-((2-(6-(4,4-dimethylcyclohex-1-en-1-yl)naphthalen-2-yl)thiazole)-4-sulfonamido)-3-methoxybenzoic acid] was tested, and the IC50 was 500 to 1000 nM.
`CC[C@H]1CC[C@H](c2ccc(-c3nc(S(=O)(=O)Nc4cc5c(cc4OC)C(=O)NC5)cs3)cc2)CC1` [Example 574] showed an IC50 of 1000 to 100000 nM.
For `COc1cc(C(=O)O)c(F)cc1NS(=O)(=O)c1csc(-c2ccc(C3CCC(C)(C)CC3)cc2C(F)F)n1` [Example 591], the IC50 was under 100 nM.
In the case of `COc1cc(C(=O)O)ccc1NS(=O)(=O)c1csc(C#Cc2cccc(C)c2)n1` [Example 186], the IC50 is reported as under 100 nM.
With `CC[C@H]1CC[C@H](c2ccc(-c3nc(S(=O)(=O)Nc4ccc(C(=O)O)cc4OC)cs3)cc2)CC1` [Example 352] the IC50 was under 100 nM.
For `COc1cc(C(=O)O)c(F)cc1NS(=O)(=O)c1ccc2sc(-c3ccc(C4CCCC4)cc3)nc2c1` [Example 662], the IC50 was 100 to 500 nM.
With `CC[C@H]1CC[C@H](c2ccc(-c3nc(S(=O)(=O)Nc4ccc(C(=O)O)cc4OC)co3)cc2)CC1` [Example 488] the IC50 was 100 to 500 nM.
For `COc1cc(C(=O)O)ccc1NS(=O)(=O)c1coc2ccccc12` [Example 138], the IC50 was 1000 to 100000 nM.
`COc1cc(C(=O)O)ccc1NS(=O)(=O)c1coc(-c2ccc(C(C)C)cc2)n1` [Example 466, 4-((2-(4-isopropylphenyl)oxazole)-4-sulfonamido)-3-methoxybenzoic acid] gave an IC50 of under 100 nM.
`COc1cc(CC(=O)O)ccc1NS(=O)(=O)c1csc(C#Cc2cccc(OC(F)(F)F)c2)n1` [Example 401, 2-(3-methoxy-4-((2-((3-(trifluoromethoxy)phenyl)ethynyl)thiazole)-4-sulfonamido)phenyl)acetic acid] gave an IC50 of 1000 to 100000 nM.
For `COc1cc(C(=O)O)c(F)cc1NS(=O)(=O)c1csc(-c2ccc(C3=CCC(C(C)(C)C)CC3)cc2C(F)(F)F)n1` (stereo not shown) [Example 776], the IC50 was under 100 nM.
`COc1cc(C(=O)O)c(F)cc1NS(=O)(=O)c1csc(-c2ccc([C@H]3CC[C@@H](C(C)(C)C)CC3)c(OC(C)C)c2F)n1` [Example 597] was tested, and the IC50 was under 100 nM.
Work on `COc1cc(C(=O)O)c(F)cc1NS(=O)(=O)c1ccc2sc(-c3ccc(C4CCC4)cc3)nc2c1` [Example 663] yielded an IC50 of 100 to 500 nM.
With `COc1cc(C(=O)O)ccc1NS(=O)(=O)c1csc(-c2ccc(C(F)(F)F)cc2)n1` [Example 98] the IC50 was 100 to 500 nM.
Work on `COc1cc(C(=O)O)c(F)cc1NS(=O)(=O)c1ccc(-c2ccc(F)cc2)s1` [Example 231] yielded an IC50 of under 100 nM.
Compound `COc1cc(C(=O)O)ccc1NS(=O)(=O)c1ccc(-c2ccc(C3CCCCC3)cc2)cc1` [Example 361] has an IC50 of 1000 to 100000 nM.
In the case of `COc1nc(C(=O)O)ccc1NS(=O)(=O)c1cnc(-c2ccc(F)cc2)s1` [Example 74], the IC50 is reported as 1000 to 100000 nM.
`COc1cc(C(=O)O)ccc1NS(=O)(=O)c1csc(C#Cc2ccc(C(F)(F)F)cc2)n1` [Example 182] gave an IC50 of under 100 nM.
Work on `COc1cc(C(=O)O)ccc1NS(=O)(=O)N1Cc2nc(C3CCC(c4ccccc4)CC3)sc2C1` (stereo not shown) [Example 376, 3-methoxy-4-((2-(4-phenylcyclohexyl)-5,6-dihydro-4H-pyrrolo[3,4-d]thiazole)-5-sulfonamido)benzoic acid] yielded an IC50 of under 100 nM.
In the case of `COc1cc(NS(=O)(=O)c2cnc(-c3ccc(F)cc3)s2)ccc1C(=O)O` [Example 22], the IC50 is reported as 1000 to 100000 nM.
Compound `COc1cc(C(=O)O)c(F)cc1NS(=O)(=O)c1csc(-c2ccc(C3CCC(C)(C)CC3)cn2)n1` [Example 573] has an IC50 of 100 to 500 nM.
`O=C(O)c1cnc(NS(=O)(=O)c2cnc(-c3ccc(F)cc3)s2)o1` [Example 104] showed an IC50 of 1000 to 100000 nM.
Work on `COc1cccc(-c2nc(S(=O)(=O)Nc3ccc(C(=O)O)cc3OC)cs2)c1` [Example 140] yielded an IC50 of 500 to 1000 nM.
In the case of `COc1cc(C(=O)O)c(F)cc1NS(=O)(=O)c1ccn(-c2ccc(C3CCC(C)(C)CC3)cc2)n1` [Example 690], the IC50 is reported as 100 to 500 nM.
`Cn1nc(C(=O)O)cc1NS(=O)(=O)c1cnc(-c2ccc(F)cc2)s1` [Example 91] was tested, and the IC50 was over 100000 nM.
`CCOc1c(C2=CCC(C(C)C)CC2)ccc(-c2nc(S(=O)(=O)Nc3cc(F)c(C(=O)O)cc3OC)cs2)c1F` (stereo not shown) [Example 809] gave an IC50 of under 100 nM.
In the case of `CC(C)(C)c1ccc(S(=O)(=O)NC(=O)OCc2ccc(NS(=O)(=O)c3cnc(-c4ccc(F)cc4)s3)cc2)cc1` [Example 38, 4-((2-(4-fluorophenyl)thiazole)-5-sulfonamido)benzyl ((4-(tert-butyl)phenyl)sulfonyl)carbamate], the IC50 is reported as 1000 to 100000 nM.
For `COc1cc(C(=O)O)ccc1NS(=O)(=O)c1csc(C#Cc2ccc(C)cc2)n1` [Example 176, 3-methoxy-4-((2-(p-tolylethynyl)thiazole)-4-sulfonamido)benzoic acid], the IC50 was 100 to 500 nM.
Compound `COc1cc(C(=O)O)ccc1NS(=O)(=O)c1coc(-c2ccc(C3CCC(C(F)(F)F)CC3)cc2)n1` (stereo not shown) [Example 468] has an IC50 of under 100 nM.
For `COc1cc(C(=O)O)ccc1NS(=O)(=O)c1csc(-c2ccc(C3CCCC3)cc2)n1` [Example 300], the IC50 was 500 to 1000 nM.
`COc1cc(C(=O)O)c(F)cc1NS(=O)(=O)c1csc(C#Cc2ccccc2C)n1` [Example 237] gave an IC50 of 100 to 500 nM.
`COc1cc(C(=O)O)c(F)cc1NS(=O)(=O)c1csc(-c2ccc(C3=CCC(C)(C)CC3)cc2OC)n1` [Example 536] showed an IC50 of under 100 nM.
In the case of `COc1cc(C(=O)O)c(F)cc1NS(=O)(=O)c1coc(-c2ccc(C3CCC(C)(C)CC3)cc2C(F)(F)F)n1` [Example 676], the IC50 is reported as under 100 nM.
`COc1cc(C(=O)O)ccc1NS(=O)(=O)c1csc(-c2ccc(C3CCC3)cc2)n1` [Example 351] was tested, and the IC50 was under 100 nM.
`O=C(O)c1ccc2c(c1)CCCCN2S(=O)(=O)c1cnc(-c2ccc(F)cc2)s1` [Example 133] was tested, and the IC50 was 1000 to 100000 nM.
With `COc1cc(C(=O)O)ccc1NS(=O)(=O)c1csc(-c2ccc(C(=O)c3ccccc3)cc2)n1` [Example 297] the IC50 was 500 to 1000 nM.
`COc1cc(C(=O)O)c(F)cc1NS(=O)(=O)c1csc(-c2ccc(C3CC4CCC3CC4)cc2)n1` (stereo not shown) [Example 550] showed an IC50 of 100 to 500 nM.
`COc1cc(C(=O)O)ccc1NS(=O)(=O)c1cccc(-c2ccc(C3CCCCC3)cc2)c1F` [Example 436] showed an IC50 of under 100 nM.
With `COc1cc(C(=O)O)c(F)cc1NS(=O)(=O)c1csc(-c2ccc(-c3ccc(C45CC6C[C@H](C4)C[C@H](C6)C5)cc3)c(OC(F)(F)F)c2)n1` [Example 750] the IC50 was 100 to 500 nM.
For `COc1cc(P(=O)(O)O)ccc1NS(=O)(=O)c1csc(-c2ccc(C3CCCCC3)cc2)n1` [Example 484, (4-((2-(4-cyclohexylphenyl)thiazole)-4-sulfonamido)-3-methoxyphenyl)phosphonic acid], the IC50 was 1000 to 100000 nM.
For `COc1cc(C(=O)O)c(F)cc1NS(=O)(=O)c1cnc(-c2ccc([C@H]3CC[C@H](C)CC3)cc2)s1` [Example 627], the IC50 was under 100 nM.
With `O=C(O)c1ccc2c(c1)CCN2S(=O)(=O)c1ccccc1` [Example 13] the IC50 was 1000 to 100000 nM.
Work on `COc1cc(C(=O)O)ccc1NS(=O)(=O)c1ccc(-c2ccc(F)cc2)c(OC)c1` [Example 324] yielded an IC50 of 100 to 500 nM.
In the case of `COc1cc(C(=O)O)c(F)cc1NS(=O)(=O)c1csc(-c2ccc(C3CCC(C)(C)CC3)cc2-c2ccc(F)cc2)n1` [Example 558], the IC50 is reported as 100 to 500 nM.
Work on `COc1cc(C(=O)O)c(F)cc1NS(=O)(=O)c1csc(-c2ccc(C(F)(F)F)nc2C2=CCC(C)(C)CC2)n1` [Example 561] yielded an IC50 of 1000 to 100000 nM.
`COc1cc(C(=O)O)c(Cl)cc1NS(=O)(=O)c1csc(-c2ccc(C3CCC(C)(C)CC3)cc2C(F)(F)F)n1` [Example 696] gave an IC50 of 500 to 1000 nM.
In the case of `COc1cc(C(=O)O)ccc1NS(=O)(=O)c1csc(-c2ccc(F)cc2)n1` [Example 749], the IC50 is reported as 100 to 500 nM.
`COc1cc(C(=O)O)c(F)cc1NS(=O)(=O)c1csc(C#Cc2ccc(C(C)C)cc2)n1` [Example 241] gave an IC50 of under 100 nM.
`COc1cc(C(=O)O)ccc1NS(=O)(=O)c1csc(-c2ccccc2OC)n1` [Example 141] was tested, and the IC50 was 500 to 1000 nM.
For `COc1cc(C(=O)O)c(F)cc1NS(=O)(=O)c1ccc(-c2ccc(C(F)(F)F)cc2)s1` [Example 230], the IC50 was 100 to 500 nM.
`COc1cc(C(=O)O)c(F)cc1NS(=O)(=O)c1csc(-c2ccc(F)cc2)n1` [Example 767] showed an IC50 of 100 to 500 nM.
`COc1cc(C(=O)O)ccc1NS(=O)(=O)c1csc(-c2cccnc2)n1` [Example 143] gave an IC50 of 1000 to 100000 nM.
`COc1ccnc(C#Cc2nc(S(=O)(=O)Nc3ccc(C(=O)O)cc3OC)cs2)c1` [Example 245] showed an IC50 of 1000 to 100000 nM.
Compound `COc1cc(C(=O)O)c(F)cc1NS(=O)(=O)c1ccc2nc(-c3ccc(C4CCC(C)(C)CC4)cc3)sc2c1` [Example 700] has an IC50 of 1000 to 100000 nM.
For `CCC1CC=C(c2ccc(-c3nc(S(=O)(=O)Nc4cc(F)c(C(=O)O)cc4OC)co3)cc2)CC1` (stereo not shown) [Example 494], the IC50 was under 100 nM.
`COc1cc(C(=O)O)ccc1NS(=O)(=O)c1csc(N2CCCC(Cc3ccc(C(F)(F)F)cc3)C2)n1` (stereo not shown) [Example 283] gave an IC50 of 100 to 500 nM.
